Laboratory results reported in US20240398811A1, “PRC2 INHIBITORS FOR USE IN TREATING BLOOD DISORDERS” (ORIC Pharmaceuticals, Inc., priority 2021, published 2024).

Target: purified human, His-tagged PRC2 complex (Homo sapiens (Human), UniProt O75530)
Assay: Hot Spot HMT assay, inhibition of PRC2 enzymatic activity
Assay type: biochemical
Details: 10 nM PRC2 complex, 1 μM 3H-SAM, core histone H3, 10-point dose-response
Text: The assay uses purified human, His-tagged PRC2 complex, including N-terminal His-tagged EZH2 enzyme, N-terminal Flag-tagged embryonic ectoderm development protein (EED), N-terminal His-tagged suppressor of zeste 12 (SUZ12), N-terminal His-tagged AEBP2, and N-terminal His-tagged RbAp48. In this assay, the transfer of the tritiated methyl group from radiolabeled S-adenosyl methionine (SAM) to purified core histone protein by EZH2 is quantitated after filtration to determine the activity of the core PRC2 complex in the presence and absence of compound.
The initial starting concentration for the serial dilutions of each compound was 1.0 μM. […] SAH (S-(5-adenosyl)-L-homocysteine) was used as a positive control for assay validation.
An aliquot of each serial dilution of test compound was added to deep 384 well plate using Acoustic Technology instrument (Echo 550, LabCyte) containing reaction buffer (50 mM Tris-HCl (pH 8.)), 0.01% Brij35, 1 mM EDTA, 1 mM DTT, 1 mM PMSF and 1% DMSO), 10 nM purified PRC2 complex and 0.05 mg/ml core histone H3 in a 5 μl volume. The reaction was mixed gently and then pre-incubated for 20 min at 30° C. The enzymatic reaction was initiated by adding 1 μM S-Adenosyl-L-[methyl-^3H]methionine and incubated for 1 hr at 30° C. After 1 hr, the reaction product was detected using a filter binding method and the amount of tritiated H3 core histone was quantitated using a scintillation counter. […] Key: A=<100 nM; B=>100 nM-<500 nM; and C=>500 nM.

Chain of purified human, His-tagged PRC2 complex (O75530 whole entry): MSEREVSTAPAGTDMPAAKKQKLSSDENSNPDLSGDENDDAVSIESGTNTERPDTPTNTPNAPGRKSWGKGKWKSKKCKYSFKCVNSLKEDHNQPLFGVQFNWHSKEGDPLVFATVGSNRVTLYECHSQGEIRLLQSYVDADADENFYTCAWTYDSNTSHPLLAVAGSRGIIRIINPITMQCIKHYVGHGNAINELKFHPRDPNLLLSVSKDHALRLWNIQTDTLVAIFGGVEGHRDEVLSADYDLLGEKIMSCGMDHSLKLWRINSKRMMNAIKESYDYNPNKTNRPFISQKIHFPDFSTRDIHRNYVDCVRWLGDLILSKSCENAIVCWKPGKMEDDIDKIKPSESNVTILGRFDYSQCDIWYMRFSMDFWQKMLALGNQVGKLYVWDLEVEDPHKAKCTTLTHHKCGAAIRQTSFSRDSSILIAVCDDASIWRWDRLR
Chain of purified human, His-tagged PRC2 complex (Q15910 whole entry partner): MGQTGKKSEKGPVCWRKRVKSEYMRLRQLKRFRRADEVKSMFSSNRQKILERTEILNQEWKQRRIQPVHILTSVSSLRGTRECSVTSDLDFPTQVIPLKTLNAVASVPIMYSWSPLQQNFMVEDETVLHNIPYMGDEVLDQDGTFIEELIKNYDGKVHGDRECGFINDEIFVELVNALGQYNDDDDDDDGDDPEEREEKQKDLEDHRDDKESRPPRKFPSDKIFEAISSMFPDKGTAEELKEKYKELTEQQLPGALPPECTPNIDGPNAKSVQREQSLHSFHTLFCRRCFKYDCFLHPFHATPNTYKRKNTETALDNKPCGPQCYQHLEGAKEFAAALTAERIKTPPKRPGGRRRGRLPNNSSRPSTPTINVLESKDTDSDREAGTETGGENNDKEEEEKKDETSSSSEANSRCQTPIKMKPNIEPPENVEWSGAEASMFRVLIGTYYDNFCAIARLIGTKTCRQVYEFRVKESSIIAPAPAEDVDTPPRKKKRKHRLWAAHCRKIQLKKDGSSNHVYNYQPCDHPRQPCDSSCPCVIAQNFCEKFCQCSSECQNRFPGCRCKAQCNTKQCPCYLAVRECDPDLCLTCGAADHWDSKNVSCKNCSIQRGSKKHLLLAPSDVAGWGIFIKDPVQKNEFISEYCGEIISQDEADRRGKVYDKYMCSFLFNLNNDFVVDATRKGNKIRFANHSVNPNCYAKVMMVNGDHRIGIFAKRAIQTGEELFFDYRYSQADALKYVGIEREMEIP
Chain of purified human, His-tagged PRC2 complex (Q15022 whole entry partner): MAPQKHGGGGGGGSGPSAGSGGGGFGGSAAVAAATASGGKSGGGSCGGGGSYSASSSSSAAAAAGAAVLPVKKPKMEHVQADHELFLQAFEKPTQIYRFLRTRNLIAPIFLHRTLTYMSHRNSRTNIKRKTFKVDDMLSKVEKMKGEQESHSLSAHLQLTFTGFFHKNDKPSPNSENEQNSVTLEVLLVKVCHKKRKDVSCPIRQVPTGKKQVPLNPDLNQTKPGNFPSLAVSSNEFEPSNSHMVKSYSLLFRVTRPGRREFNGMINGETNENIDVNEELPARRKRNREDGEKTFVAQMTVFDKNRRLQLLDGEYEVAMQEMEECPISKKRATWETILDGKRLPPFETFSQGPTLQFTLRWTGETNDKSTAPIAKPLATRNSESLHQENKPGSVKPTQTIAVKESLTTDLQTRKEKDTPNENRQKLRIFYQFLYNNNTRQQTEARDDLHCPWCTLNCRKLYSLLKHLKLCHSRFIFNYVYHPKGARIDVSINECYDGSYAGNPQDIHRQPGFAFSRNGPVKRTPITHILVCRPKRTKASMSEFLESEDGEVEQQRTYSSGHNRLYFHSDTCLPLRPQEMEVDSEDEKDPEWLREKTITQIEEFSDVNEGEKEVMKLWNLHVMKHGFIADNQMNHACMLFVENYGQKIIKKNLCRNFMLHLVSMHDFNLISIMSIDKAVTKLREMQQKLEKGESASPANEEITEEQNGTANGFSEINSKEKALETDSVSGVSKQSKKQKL
Chain of purified human, His-tagged PRC2 complex (Q6ZN18 whole entry partner): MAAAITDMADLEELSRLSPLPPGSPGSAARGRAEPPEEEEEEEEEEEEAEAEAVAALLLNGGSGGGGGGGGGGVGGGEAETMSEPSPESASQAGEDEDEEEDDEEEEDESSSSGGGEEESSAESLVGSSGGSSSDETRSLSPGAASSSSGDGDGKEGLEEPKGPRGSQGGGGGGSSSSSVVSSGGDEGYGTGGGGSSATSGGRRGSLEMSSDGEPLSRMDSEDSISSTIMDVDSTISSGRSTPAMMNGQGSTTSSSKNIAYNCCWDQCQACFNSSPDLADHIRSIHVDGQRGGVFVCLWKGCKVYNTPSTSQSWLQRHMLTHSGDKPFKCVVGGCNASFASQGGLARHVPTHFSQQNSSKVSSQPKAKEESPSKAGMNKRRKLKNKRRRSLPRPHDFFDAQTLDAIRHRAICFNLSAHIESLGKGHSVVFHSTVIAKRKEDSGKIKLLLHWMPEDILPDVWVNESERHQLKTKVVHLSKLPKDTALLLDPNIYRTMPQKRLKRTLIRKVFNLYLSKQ
Chain of purified human, His-tagged PRC2 complex (Q09028 whole entry partner): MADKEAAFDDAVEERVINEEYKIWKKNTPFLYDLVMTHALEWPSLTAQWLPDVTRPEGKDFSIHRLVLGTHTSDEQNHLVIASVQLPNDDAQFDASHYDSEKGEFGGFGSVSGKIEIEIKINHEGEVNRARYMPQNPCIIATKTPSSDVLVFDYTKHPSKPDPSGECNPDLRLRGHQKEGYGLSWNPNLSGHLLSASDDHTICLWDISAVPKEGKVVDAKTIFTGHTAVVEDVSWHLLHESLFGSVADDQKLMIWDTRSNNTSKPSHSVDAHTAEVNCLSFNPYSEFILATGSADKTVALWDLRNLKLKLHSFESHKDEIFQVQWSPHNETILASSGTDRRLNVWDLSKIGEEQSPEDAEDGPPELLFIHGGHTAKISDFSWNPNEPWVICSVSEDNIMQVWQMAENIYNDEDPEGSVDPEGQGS

Row | Structure (SMILES) | IC50 [nM]
1 | Cc1cc(C(=O)N(C)C)ccc1-c1cnc(NCc2c(F)ccc3c2CCO3)n2cc(C#N)nc12 [Example 44, 4-(2-cyano-5-(((5-fluoro-2,3-dihydrobenzofuran-4-yl)methyl)amino)imidazo[1,2-c]pyrimidin-8-yl)-N,N,3-trimethylbenzamide] | < 100
2 | CN(C)C(=O)c1c(F)cc(-c2cnc(NCc3c(F)ccc4c3CCO4)n3cc(C#N)nc23)cc1F [Example 45, 4-(2-cyano-5-(((5-fluoro-2,3-dihydrobenzofuran-4-yl)methyl)amino)imidazo[1,2-c]pyrimidin-8-yl)-2,6-difluoro-N,N-dimethylbenzamide] | < 100
3 | N#Cc1cn2c(NCc3c(F)ccc4c3CCO4)ncc(-c3ccccc3)c2n1 [Example 46, 5-(((5-fluoro-2,3-dihydrobenzofuran-4-yl)methyl)amino)-8-phenylimidazo[1,2-c]pyrimidine-2-carbonitrile] | < 100
4 | N#Cc1cn2c(NCc3c(F)ccc4c3CCO4)ncc(-c3ccc(S(N)(=O)=O)cc3)c2n1 [Example 47, 4-(2-cyano-5-(((5-fluoro-2,3-dihydrobenzofuran-4-yl)methyl)amino)imidazo[1,2-c]pyrimidin-8-yl)benzenesulfonamide] | < 100
5 | Cc1cc(S(=O)(=O)N(C)C)ccc1-c1cnc(NCc2c(F)ccc3c2CCO3)n2cc(C#N)nc12 [Example 48, 4-(2-cyano-5-(((5-fluoro-2,3-dihydrobenzofuran-4-yl)methyl)amino)imidazo[1,2-c]pyrimidin-8-yl)-N,N,3-trimethylbenzenesulfonamide] | < 100
6 | N#Cc1cn2c(NCc3c(F)ccc4c3CCO4)ncc(-c3ccc(CN4CCCC4=O)cc3)c2n1 [Example 49, 5-(((5-fluoro-2,3-dihydrobenzofuran-4-yl)methyl)amino)-8-(4-((2-oxopyrrolidin-1-yl)methyl)phenyl)imidazo[1,2-c]pyrimidine-2-carbonitrile] | < 100
7 | COC1CN(Cc2ccc(-c3cnc(NCc4c(F)ccc5c4CCO5)n4cc(C#N)nc34)cc2)C1 [Example 50, 5-(((5-fluoro-2,3-dihydrobenzofuran-4-yl)methyl)amino)-8-(4-((3-methoxyazetidin-1-yl)methyl)phenyl)imidazo[1,2-c]pyrimidine-2-carbonitrile] | < 100
8 | N#Cc1cn2c(NCc3c(F)ccc4c3CCO4)ncc(-c3ccc(CN4CC(F)(F)C4)cc3)c2n1 [Example 51, 8-(4-((3,3-difluoroazetidin-1-yl)methyl)phenyl)-5-(((5-fluoro-2,3-dihydrobenzofuran-4-yl)methyl)amino)imidazo[1,2-c]pyrimidine-2-carbonitrile] | < 100
9 | N#Cc1cn2c(NCc3c(F)ccc4c3CCO4)ncc(-c3ccc(CN4CC5CC5C4)cc3)c2n1 (stereo not shown) [Example 52, 8-(4-((3-azabicyclo[3.1.0]hexan-3-yl)methyl)phenyl)-5-(((5-fluoro-2,3-dihydrobenzofuran-4-yl)methyl)amino)imidazo[1,2-c]pyrimidine-2-carbonitrile] | < 100
10 | COC1CCN(Cc2ccc(-c3cnc(NCc4c(F)ccc5c4CCO5)n4cc(C#N)nc34)cc2)C1 (stereo not shown) [Example 53, 5-(((5-fluoro-2,3-dihydrobenzofuran-4-yl)methyl)amino)-8-(4-((3-methoxypyrrolidin-1-yl)methyl)phenyl)imidazo[1,2-c]pyrimidine-2-carbonitrile] | < 100
11 | N#Cc1cn2c(NCc3c(F)ccc4c3CCO4)ncc(-c3ccc(CN4CCC(F)C4)cc3)c2n1 (stereo not shown) [Example 54, 5-(((5-fluoro-2,3-dihydrobenzofuran-4-yl)methyl)amino)-8-(4-((3-fluoropyrrolidin-1-yl)methyl)phenyl)imidazo[1,2-c]pyrimidine-2-carbonitrile] | < 100
12 | N#Cc1cn2c(NCc3c(F)ccc4c3CCO4)ncc(-c3ccc(CN4CCC(F)(F)C4)cc3)c2n1 [Example 55, 8-(4-((3,3-difluoropyrrolidin-1-yl)methyl)phenyl)-5-(((5-fluoro-2,3-dihydrobenzofuran-4-yl)methyl)amino)imidazo[1,2-c]pyrimidine-2-carbonitrile] | < 100
13 | Cc1nc(N2CCOCC2)ccc1-c1cnc(NCc2c(F)ccc3c2CCO3)n2cc(C#N)nc12 [Example 56, 5-(((5-fluoro-2,3-dihydrobenzofuran-4-yl)methyl)amino)-8-(2-methyl-6-morpholinopyridin-3-yl)imidazo[1,2-c]pyrimidine-2-carbonitrile] | < 100
14 | N#Cc1cn2c(NCc3c(F)ccc4c3CCO4)ncc(-c3ccncn3)c2n1 [Example 57, 5-(((5-fluoro-2,3-dihydrobenzofuran-4-yl)methyl)amino)-8-(pyrimidin-4-yl)imidazo[1,2-c]pyrimidine-2-carbonitrile] | < 100
15 | CN(C)S(=O)(=O)c1ccc(-c2cnc(NCc3c(F)ccc4c3CCO4)n3cc(C#N)nc23)cc1 [Example 58, 4-(2-cyano-5-(((5-fluoro-2,3-dihydrobenzofuran-4-yl)methyl)amino)imidazo[1,2-c]pyrimidin-8-yl)-N,N-dimethylbenzenesulfonamide] | < 100
16 | CNS(=O)(=O)c1ccc(-c2cnc(NCc3c(F)ccc4c3CCO4)n3cc(C#N)nc23)cc1 [Example 59, 4-(2-cyano-5-(((5-fluoro-2,3-dihydrobenzofuran-4-yl)methyl)amino)imidazo[1,2-c]pyrimidin-8-yl)-N-methylbenzenesulfonamide] | < 100
17 | CN(C)c1ccc(-c2cnc(NCc3c(F)ccc4c3CCO4)n3cc(C#N)nc23)cn1 [Example 60, 8-(6-(dimethylamino)pyridin-3-yl)-5-(((5-fluoro-2,3-dihydrobenzofuran-4-yl)methyl)amino)imidazo[1,2-c]pyrimidine-2-carbonitrile] | 100 to 500
18 | CN(C)Cc1ccc(-c2cnc(NCc3c(F)ccc4c3CCO4)n3cc(C#N)nc23)c(F)c1 [Example 61, 8-(4-((dimethylamino)methyl)-2-fluorophenyl)-5-(((5-fluoro-2,3-dihydrobenzofuran-4-yl)methyl)amino)imidazo[1,2-c]pyrimidine-2-carbonitrile] | < 100
19 | Cc1ncc(F)cc1-c1cnc(NCc2c(F)ccc3c2CCO3)n2cc(C#N)nc12 [Example 62, 5-(((5-fluoro-2,3-dihydrobenzofuran-4-yl)methyl)amino)-8-(5-fluoro-2-methylpyridin-3-yl)imidazo[1,2-c]pyrimidine-2-carbonitrile] | < 100
20 | CN(C)Cc1ccc(-c2cnc(NCc3c(F)ccc4c3CCO4)n3cc(C#N)nc23)cc1F [Example 63, 8-(4-((dimethylamino)methyl)-3-fluorophenyl)-5-(((5-fluoro-2,3-dihydrobenzofuran-4-yl)methyl)amino)imidazo[1,2-c]pyrimidine-2-carbonitrile] | < 100
21 | N#Cc1cn2c(NCc3c(F)ccc4c3CCO4)ncc(-c3cccnc3C(F)F)c2n1 [Example 64, 8-(2-(difluoromethyl)pyridin-3-yl)-5-(((5-fluoro-2,3-dihydrobenzofuran-4-yl)methyl)amino)imidazo[1,2-c]pyrimidine-2-carbonitrile] | < 100
22 | Cc1nn(C[C@H](C)O)c(C)c1-c1cnc(NCc2c(F)ccc3c2CCO3)n2cc(C#N)nc12 [Example 65, (S)-5-(((5-fluoro-2,3-dihydrobenzofuran-4-yl)methyl)amino)-8-(1-(2-hydroxypropyl)-3,5-dimethyl-1H-pyrazol-4-yl)imidazo[1,2-c]pyrimidine-2-carbonitrile] | 100 to 500
23 | Cc1nn(C[C@@H](C)O)c(C)c1-c1cnc(NCc2c(F)ccc3c2CCO3)n2cc(C#N)nc12 [Example 66, (R)-5-(((5-fluoro-2,3-dihydrobenzofuran-4-yl)methyl)amino)-8-(1-(2-hydroxypropyl)-3,5-dimethyl-1H-pyrazol-4-yl)imidazo[1,2-c]pyrimidine-2-carbonitrile] | 100 to 500
24 | Cc1ccc(-c2cnc(NCc3c(F)ccc4c3CCO4)n3cc(C#N)nc23)c(C)n1 [Example 67, 8-(2,6-dimethylpyridin-3-yl)-5-(((5-fluoro-2,3-dihydrobenzofuran-4-yl)methyl)amino)imidazo[1,2-c]pyrimidine-2-carbonitrile] | < 100
25 | N#Cc1cn2c(NCc3c(F)ccc4c3CCO4)ncc(-c3cnccn3)c2n1 [Example 68, 5-(((5-fluoro-2,3-dihydrobenzofuran-4-yl)methyl)amino)-8-(pyrazin-2-yl)imidazo[1,2-c]pyrimidine-2-carbonitrile] | < 100
26 | Cc1ncc(-c2cnc(NCc3c(F)ccc4c3CCO4)n3cc(C#N)nc23)cn1 [Example 69, 5-(((5-fluoro-2,3-dihydrobenzofuran-4-yl)methyl)amino)-8-(2-methylpyrimidin-5-yl)imidazo[1,2-c]pyrimidine-2-carbonitrile] | < 100
27 | Cc1ncc(-c2cnc(NCc3c(F)ccc4c3CCO4)n3cc(C#N)nc23)c(C)n1 [Example 71, 8-(2,4-dimethylpyrimidin-5-yl)-5-(((5-fluoro-2,3-dihydrobenzofuran-4-yl)methyl)amino)imidazo[1,2-c]pyrimidine-2-carbonitrile] | < 100
28 | Cc1nn(C)cc1-c1cnc(NCc2c(F)ccc3c2CCO3)n2cc(C#N)nc12 [Example 72, 8-(1,3-dimethyl-1H-pyrazol-4-yl)-5-(((5-fluoro-2,3-dihydrobenzofuran-4-yl)methyl)amino)imidazo[1,2-c]pyrimidine-2-carbonitrile] | < 100
